Experimental findings from ChEMBL document CHEMBL1128661, “Vasorelaxant activity of 2-fluoroalkyl-6-nitro-2H-1-benzopyran-4-carbothioamide and -carboxamide K+ channel openers” (Bioorg Med Chem Lett, 1995) are described below.

Assay [1] is filed under the species Rattus norvegicus. The assay is described as follows: Negative logarithm of the molar concentration required to relax rat aorta precontracted with 30 mM KCI by 50% of IA. The format is functional, organism-based.
For assay [2], the species on record is Rattus norvegicus. Kind of assay: Intrinsic vasorelaxant activity tested in rat aorta. It is filed as functional.

A word on the EC50: it is the concentration that produces a half-maximal response.

`CC1(C)C=C(C(=O)NCCC#N)c2cc([N+](=O)[O-])ccc2O1`: the midpoint of the response in assay [1], the EC50, lay at 2.82 nM. Besides, in assay [2], the Intrinsic activity is reported as 73.1%.
`CNC(=O)C1=CC(C)(C)Oc2ccc([N+](=O)[O-])cc21` registered an Intrinsic activity in assay [2] of 61%.
Molecule `C/N=C(/S)C1=CC2(CCCC2)Oc2ccc([N+](=O)[O-])cc21` gave an EC50 in assay [1] of 0.0209 nM.
`N#CCC/N=C(\S)C1=CC(CF)(CF)Oc2ccc([N+](=O)[O-])cc21` gave an EC50 in assay [1] of 0.141 nM. The molecule further displayed an Intrinsic activity in assay [2] of 72.5%.
Consider `C/N=C(/S)C1=CC(C)(C)Oc2ccc([N+](=O)[O-])cc21`, for which the Intrinsic activity in assay [2] amounted to 63.5%.
For `C/N=C(/S)C1=CC(C)(CF)Oc2ccc([N+](=O)[O-])cc21` (configuration not stated), the midpoint of the response in assay [1], the EC50, lay at 1.62 nM. This molecule also registered an Intrinsic activity in assay [2] of 77.1%.
In the case of `CC1(C)C=C(/C(S)=N\CCC#N)c2cc([N+](=O)[O-])ccc2O1`, in assay [1], a half-maximal response (EC50) required 0.372 nM. This molecule yielded an Intrinsic activity in assay [2] of 78.5%.
Turning to `CC1(CF)C=C(C(=O)NCCC#N)c2cc([N+](=O)[O-])ccc2O1` (configuration not stated), a half-maximal effect in assay [1] (EC50) was put at 3.98 nM. In assay [2], the Intrinsic activity came out at 71%.
Consider `N#CCCNC(=O)C1=CC(C(F)(F)F)(C(F)(F)F)Oc2ccc([N+](=O)[O-])cc21`, for which, in assay [1], the EC50 is 0.49 nM. Further, the Intrinsic activity in assay [2] is 64.1%.
On the same counts, the results for `CC1(C(F)(F)F)C=C(/C(S)=N\CCC#N)c2cc([N+](=O)[O-])ccc2O1` (configuration not stated) are 0.363 nM and 69.7%.
`CNC(=O)C1=CC(C(F)(F)F)(C(F)(F)F)Oc2ccc([N+](=O)[O-])cc21`: in assay [1], the EC50 was 1.48 nM. The Intrinsic activity in assay [2] was 57.9%.
As for `C/N=C(/S)C1=CC(CF)(CF)Oc2ccc([N+](=O)[O-])cc21`, in assay [1], the midpoint of the response, the EC50, lay at 0.479 nM. This molecule registered an Intrinsic activity in assay [2] of 74.5%.
In the case of `C/N=C(/S)C1=CC2(CCC2)Oc2ccc([N+](=O)[O-])cc21`, the midpoint of the response in assay [1], the EC50, lay at 0.0251 nM.
Take `CC1(CF)C=C(/C(S)=N\CCC#N)c2cc([N+](=O)[O-])ccc2O1` (configuration not stated): the EC50 in assay [1] was 1.86 nM. Moreover, the Intrinsic activity in assay [2] is given as 59.6%.
On the same counts, the results for `N#CCCNC(=O)C1=CC(CF)(CF)Oc2ccc([N+](=O)[O-])cc21` are 2.24 nM and 72.3%.
On the same counts, the results for `N#CCC/N=C(/S)C1=CC(C(F)(F)F)(C(F)(F)F)Oc2ccc([N+](=O)[O-])cc21` are 0.437 nM and 74.8%.
`CNC(=O)C1=CC(C)(C(F)(F)F)Oc2ccc([N+](=O)[O-])cc21` (configuration not stated) showed an EC50 in assay [1] of 2.69 nM. Besides, in assay [2], the Intrinsic activity came to 61.7%.
On the same counts, the results for `CNC(=O)C1=CC(C)(CF)Oc2ccc([N+](=O)[O-])cc21` (configuration not stated) are 8.91 nM and 66%.
On the same counts, the results for `C/N=C(/S)C1=CC(C)(C(F)(F)F)Oc2ccc([N+](=O)[O-])cc21` (configuration not stated) are 0.302 nM and 62.5%.
On the same counts, the results for `CC1(C(F)(F)F)C=C(C(=O)NCCC#N)c2cc([N+](=O)[O-])ccc2O1` (configuration not stated) are 0.692 nM and 70.6%.
In turn, `C/N=C(/S)C1=CC(C(F)(F)F)(C(F)(F)F)Oc2ccc([N+](=O)[O-])cc21` showed an EC50 in assay [1] of 0.631 nM. For the same molecule, in assay [2], the Intrinsic activity worked out at 68%.
`CNC(=O)C1=CC(CF)(CF)Oc2ccc([N+](=O)[O-])cc21` showed an EC50 in assay [1] of 5.13 nM. Besides, the Intrinsic activity in assay [2] is 70.7%.
Molecule `CC1(C)Oc2ccc(C#N)cc2[C@@H](N2CCCC2=O)[C@@H]1O` [CROMAKALIM] came in with an Intrinsic activity in assay [2] of 74.7%.
Take `CC(N/C(=N\C#N)Nc1ccncc1)C(C)(C)C` (configuration not stated) [PINACIDIL ANHYDROUS]: in assay [2], the Intrinsic activity is reported as 91.9%.
